How the values were obtained:
Type in all cases: functional
[1] = test system: Leptinotarsa decemlineata; experiment: Insecticidal activity against second-instar larval stage of Leptinotarsa decemlineata infested potato leaves assessed as mortality at 20 ul after 96 hr (reference value: 3.3 +/- 3.3%)
[2] = test system: Leptinotarsa decemlineata; experiment: Insecticidal activity against second-instar larval stage of Leptinotarsa decemlineata infested potato leaves assessed as mortality at 20 ul after 48 hr (reference value: 3.3 +/- 3.3%)
[3] = test system: Leptinotarsa decemlineata; experiment: Insecticidal activity against second-instar larval stage of Leptinotarsa decemlineata infested potato leaves assessed as mortality at 20 ul after 24 hr (reference value: 3.3 +/- 3.3%)
[4] = test system: Leptinotarsa decemlineata; experiment: Insecticidal activity against second-instar larval stage of Leptinotarsa decemlineata infested potato leaves assessed as mortality at 10 ul after 12 hr relative to control
[5] = test system: Leptinotarsa decemlineata; experiment: Insecticidal activity against adult Leptinotarsa decemlineata infested potato leaves assessed as mortality at 20 ul after 96 hr relative to control
[6] = test system: Leptinotarsa decemlineata; experiment: Insecticidal activity against adult Leptinotarsa decemlineata infested potato leaves assessed as mortality at 20 ul after 48 hr relative to control
[7] = test system: Leptinotarsa decemlineata; experiment: Insecticidal activity against adult Leptinotarsa decemlineata infested potato leaves assessed as mortality at 20 ul after 24 hr relative to control
[8] = test system: Leptinotarsa decemlineata; experiment: Insecticidal activity against adult Leptinotarsa decemlineata infested potato leaves assessed as mortality at 20 ul after 12 hr relative to control
[9] = test system: Leptinotarsa decemlineata; experiment: Insecticidal activity against adult Leptinotarsa decemlineata infested potato leaves assessed as mortality at 10 ul after 96 hr relative to control
[10] = test system: Leptinotarsa decemlineata; experiment: Insecticidal activity against adult Leptinotarsa decemlineata infested potato leaves assessed as mortality at 10 ul after 48 hr relative to control
[11] = test system: Leptinotarsa decemlineata; experiment: Insecticidal activity against adult Leptinotarsa decemlineata infested potato leaves assessed as mortality at 10 ul after 24 hr relative to control
[12] = test system: Leptinotarsa decemlineata; experiment: Insecticidal activity against adult Leptinotarsa decemlineata infested potato leaves assessed as mortality at 10 ul after 12 hr relative to control
[13] = test system: Leptinotarsa decemlineata; experiment: Insecticidal activity against second-instar larval stage of Leptinotarsa decemlineata infested potato leaves assessed as mortality at 20 ul after 12 hr relative to control
[14] = test system: Leptinotarsa decemlineata; experiment: Insecticidal activity against second-instar larval stage of Leptinotarsa decemlineata infested potato leaves assessed as mortality at 10 ul after 96 hr (reference value: 3.3 +/- 3.3%)
[15] = test system: Leptinotarsa decemlineata; experiment: Insecticidal activity against second-instar larval stage of Leptinotarsa decemlineata infested potato leaves assessed as mortality at 10 ul after 48 hr (reference value: 3.3 +/- 3.3%)
[16] = test system: Leptinotarsa decemlineata; experiment: Insecticidal activity against second-instar larval stage of Leptinotarsa decemlineata infested potato leaves assessed as mortality at 10 ul after 24 hr (reference value: 3.3 +/- 3.3%)
[17] = test system: Leptinotarsa decemlineata; experiment: Insecticidal activity against first-instar larval stage of Leptinotarsa decemlineata infested potato leaves assessed as mortality at 20 ul after 96 hr relative to control
[18] = test system: Leptinotarsa decemlineata; experiment: Insecticidal activity against first-instar larval stage of Leptinotarsa decemlineata infested potato leaves assessed as mortality at 20 ul after 48 hr relative to control
[19] = test system: Leptinotarsa decemlineata; experiment: Insecticidal activity against first-instar larval stage of Leptinotarsa decemlineata infested potato leaves assessed as mortality at 20 ul after 24 hr relative to control
[20] = test system: Leptinotarsa decemlineata; experiment: Insecticidal activity against first-instar larval stage of Leptinotarsa decemlineata infested potato leaves assessed as mortality at 20 ul after 12 hr relative to control
[21] = test system: Leptinotarsa decemlineata; experiment: Insecticidal activity against first-instar larval stage of Leptinotarsa decemlineata infested potato leaves assessed as mortality at 10 ul after 96 hr relative to control
[22] = test system: Leptinotarsa decemlineata; experiment: Insecticidal activity against first-instar larval stage of Leptinotarsa decemlineata infested potato leaves assessed as mortality at 10 ul after 48 hr relative to control
[23] = test system: Leptinotarsa decemlineata; experiment: Insecticidal activity against first-instar larval stage of Leptinotarsa decemlineata infested potato leaves assessed as mortality at 10 ul after 12 hr relative to control
[24] = test system: Leptinotarsa decemlineata; experiment: Insecticidal activity against first-instar larval stage of Leptinotarsa decemlineata infested potato leaves assessed as mortality at 10 ul after 24 hr relative to control
[25] = test system: Leptinotarsa decemlineata; experiment: Insecticidal activity against third-instar larval stage of Leptinotarsa decemlineata infested potato leaves assessed as mortality at 20 ul after 96 hr (reference value: 3.3 +/- 3.3%)
[26] = test system: Leptinotarsa decemlineata; experiment: Insecticidal activity against third-instar larval stage of Leptinotarsa decemlineata infested potato leaves assessed as mortality at 20 ul after 48 hr (reference value: 3.3 +/- 3.3%)
[27] = test system: Leptinotarsa decemlineata; experiment: Insecticidal activity against third-instar larval stage of Leptinotarsa decemlineata infested potato leaves assessed as mortality at 20 ul after 24 hr relative to control
[28] = test system: Leptinotarsa decemlineata; experiment: Insecticidal activity against third-instar larval stage of Leptinotarsa decemlineata infested potato leaves assessed as mortality at 20 ul after 12 hr relative to control
[29] = test system: Leptinotarsa decemlineata; experiment: Insecticidal activity against third-instar larval stage of Leptinotarsa decemlineata infested potato leaves assessed as mortality at 10 ul after 96 hr (reference value: 3.3 +/- 3.3%)
[30] = test system: Leptinotarsa decemlineata; experiment: Insecticidal activity against third-instar larval stage of Leptinotarsa decemlineata infested potato leaves assessed as mortality at 10 ul after 48 hr (reference value: 3.3 +/- 3.3%)
[31] = test system: Leptinotarsa decemlineata; experiment: Insecticidal activity against third-instar larval stage of Leptinotarsa decemlineata infested potato leaves assessed as mortality at 10 ul after 24 hr relative to control
[32] = test system: Leptinotarsa decemlineata; experiment: Insecticidal activity against third-instar larval stage of Leptinotarsa decemlineata infested potato leaves assessed as mortality at 10 ul after 12 hr relative to control

SMILES	mortality [1] [%]	mortality [2] [%]	mortality [3] [%]	mortality [4] [%]	mortality [5] [%]	mortality [6] [%]	mortality [7] [%]	mortality [8] [%]	mortality [9] [%]	mortality [10] [%]	mortality [11] [%]	mortality [12] [%]	mortality [13] [%]	mortality [14] [%]	mortality [15] [%]	mortality [16] [%]	mortality [17] [%]	mortality [18] [%]	mortality [19] [%]	mortality [20] [%]	further results
CC1=CCC(C(C)C)=CC1 [GAMMA-TERPINENE]	100	100	100	90	100	100	96.7	46.7	90	66.7	40	20	100	100	100	100	100	100	100	100	mortality [21]: 100%; mortality [22]: 100%; mortality [23]: 43.3%; mortality [24]: 100%; mortality [25]: 50%; mortality [26]: 33.3%; mortality [27]: 16.7%; mortality [28]: 10%; mortality [29]: 33.3%; mortality [30]: 30%; mortality [31]: 26.7%; mortality [32]: 16.7%
CC(=O)OC/C=C(\C)CCC=C(C)C [GERANYL ACETATE]	23.3	23.3	10	3.3	26.7	16.7	10	3.3	10	10	3.3	0	6.7	20	20	3.3	16.7	10	6.7	0	mortality [21]: 6.7%; mortality [22]: 0%; mortality [23]: 0%; mortality [24]: 0%; mortality [25]: 16.7%; mortality [26]: 16.7%; mortality [27]: 16.7%; mortality [28]: 6.7%; mortality [29]: 13.3%; mortality [30]: 13.3%; mortality [31]: 10%; mortality [32]: 6.7%
